{
  "source": "patent US20110151006A1",
  "about": "“STIMULI-RESPONSIVE HYDROGEL” (priority 2008, published 2011)",
  "key": {"GyrB (gyrase subunit B) [1]": {"target": "T1, GyrB (gyrase subunit B) (Escherichia coli, UniProt P0AES6)", "T1 construct": "GyrB migrates predominantly at its predicted size of 27 kDa; made in house; host or cells: E. coli BL21 STAR (DE3)", "assay": "Ultrafiltration study of coumermycin-induced GyrB dimerization", "assay_type": "biochemical, E. coli", "details": "50 kDa molecular weight cut-off filter; GyrB:coumermycin=2:1; GyrB without coumermycin gave 54%"}, "GyrB (gyrase subunit B) [2]": {"target": "T1, GyrB (gyrase subunit B)", "assay": "Antibiotic-triggered GyrB dimerization, DMS crosslinking and SDS-PAGE", "assay_type": "biochemical, E. coli", "details": "GyrB:coumermycin=2:1, mol/mol; DMS crosslinking; denaturing PAGE; dimer at 54 kDa", "experimental": "The gene for E. coli gyrase subunit B (gyrB) is tagged with the coding sequence for six histidine residues. The coding region is placed under the control of the phage T7-derived promoter and expressed in E. coli as a soluble cytoplasmatic protein. GyrB is purified via the hexahistidine tag using Ni^2+-based affinity chromatography. Coumermycin-induced dimerization of genetically engineered GyrB is evaluated by incubating the protein in the presence or absence of coumermycin (GyrB:coumermycin=2:1, mol/mol) with subsequent addition of the amine-specific bifunctional crosslinking agent dimethyl-suberimidate (DMS) and analysis of the complexes on denaturing polyacrylamide gel electrophoresis. […]\nConcentration of GyrB is analyzed by the Bradford method (Biorad, Muünchen, Germany, cat. no. 500-0006) using BSA as standard. […] Antibiotic-triggered dimerization of GyrB is analyzed by incubating GyrB in the presence coumermycin A1 (GyrB:coumermycin=2:1, mol/mol; Sigma, St. Louis, Mo., cat. no. C9270) for 30 min at room temperature following covalent crosslinking of the dimers by addition of dimethyl suberimidate×2HCl (DMS, SigmaAldrich, St. Louis, Mo., cat. no. 179523) at a 10-fold molar excess with respect to GyrB for 60 min at room temperature. The dimers are analyzed on SDS-PAGE. […]"}, "[3]": {"target": "T2, hexahistidine-tagged GyrB (Escherichia coli, UniProt P0AES6)", "T2 construct": "GyrB migrates predominantly at its predicted size of 27 kDa; made in house; host or cells: E. coli BL21 STAR (DE3)", "assay": "Antibiotic-dependent hydrogel formation (GyrB released into buffer)", "parameters": "species or system E. coli", "details": "GyrB:coumermycin=2:1 or ten-fold molar excess of novobiocin; mixed with poly(AAm-co-Ni2+-NTA-AAm); 12 hours in PBS", "source_text": "The protein is subsequently mixed with poly(AAm-co-Ni^2+-NTA-AAm) at a ratio of one GyrB per 11 Ni^2+ ions chelated in the polymer backbone."}},
  "data": [
    {"substance": "coumermycin A1", "values": [
      {"measurement": "GyrB protein in filtrate", "setting": "GyrB (gyrase subunit B) [1]", "value": 2.8, "unit": "%"},
      {"measurement": "GyrB dimer formation", "setting": "GyrB (gyrase subunit B) [2]", "value": "substantial dimer formation"},
      {"measurement": "GyrB-polymer complexes released into the buffer / hydrogel formation", "setting": "[3]", "value": "significantly reduced"}
    ]}
  ]
}
